These results are taken from ChEMBL document CHEMBL1201862, “PubChem BioAssay data set” (2004).

Test systems include ACHN; COLO 205; DU-145; HCT-116; HOP-62; IGROV-1; MDA-MB-231; MDA-MB-435; Malme-3M; NCI-H460; NCI-H522; OVCAR-4; PC-3; SK-MEL-28; SK-OV-3; A498; HCC 2998; SK-MEL-5; UACC-257.
Holding throughout (assay): inhibition of tumour cell growth, NCI panel, 48 h

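Each compound was tested at five concentrations against cells in 96-well plates for 48 hours. GI50 = concentration required for 50% inhibition of growth.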 Activity calls are given as the source filed them. Rule as the data show it: active = GI50 up to about 1.1 µM and inactive = higher.

As for `CCOC(=O)CCc1c(C(=O)OCC)[nH]c(/C=C2\NC(=O)C(C)=C2CC)c1C`, the GI50 is 15.5 µM (inactive) with ACHN; > 100 µM (inactive) with COLO 205; 19.3 µM (inactive) in the assay on DU-145; 33.7 µM (inactive) with HCT-116; 14.5 µM (inactive) with HOP-62; 4.59 µM (inactive) in the assay with IGROV-1. For the same compound, the GI50 in the assay on MDA-MB-231 was 19.8 µM (inactive); in the assay on MDA-MB-435, > 100 µM (inactive); in the assay on Malme-3M, 10.4 µM (inactive); in the assay with NCI-H460, 44.3 µM (inactive); in the assay with NCI-H522 it was 14.5 µM (inactive); in the assay with OVCAR-4, 20.4 µM (inactive). For the same compound, the GI50 is 26.4 µM (inactive) with PC-3, 51.8 µM (inactive) in the assay on SK-MEL-28 and 22 µM (inactive) with SK-OV-3.

On to `COC(=O)C(=O)C(C(=O)C=C(C)C)C(=O)C(=O)Nc1nc2ccc([N+](=O)[O-])cc2s1` (stereo not given), for which the GI50 in the assay on A498 is 30.5 µM (inactive); with ACHN it was 33.3 µM (inactive); in the assay with COLO 205, > 100 µM (inactive); in the assay with HCC 2998, 46.6 µM (inactive); in the assay on HCT-116, 50 µM (inactive); in the assay with HOP-62, 38.4 µM (inactive). Besides, the GI50 in the assay with IGROV-1 is 24.9 µM (inactive); with Malme-3M, > 100 µM (inactive); with NCI-H460 it was 72.8 µM (inactive); in the assay on NCI-H522, 23.7 µM (inactive); in the assay with OVCAR-4, 52.5 µM (inactive); in the assay on SK-MEL-28 it was 63.2 µM (inactive). The GI50 in the assay with SK-MEL-5 was 35.7 µM (inactive); in the assay on SK-OV-3, 39.9 µM (inactive); in the assay with UACC-257, 79.8 µM (inactive).

Turning to `OCCCNc1ccnc2cc(Cl)ccc12`, the GI50 is > 100 µM (inactive) in the assay on A498; > 100 µM (inactive) in the assay with ACHN; > 100 µM (inactive) in the assay on COLO 205; > 100 µM (inactive) in the assay with HCC 2998; 57.9 µM (inactive) with HCT-116; > 100 µM (inactive) in the assay with HOP-62. In addition, the GI50 with IGROV-1, in the assay with Malme-3M, in the assay with NCI-H460, with NCI-H522, in the assay with OVCAR-4 and with SK-MEL-28 was > 100 µM (inactive) in each case. The GI50 in the assay on SK-MEL-5, with SK-OV-3 and with UACC-257 was > 100 µM (inactive) each time.

`C[C@@H]1[C@@H]2[C@@H](C=C3C4CCC5Cc6nc7c(nc6C[C@@]5(C)C4C[C@H](O)[C@]32CO)CC2CCC3C4=C[C@H]5O[C@@]6(OC(C)(CO)C[C@@H]6O)[C@H](C)[C@@]5(O)[C@]4(C)[C@@H](O)CC3[C@]2(C)C7)O[C@]12CCC(C)(C)O2` (stereo not given in full): the GI50 in the assay with A498 was 0.00883 µM (active); with ACHN it was 0.171 µM (active); in the assay on COLO 205 it was 0.0809 µM (active); with HCC 2998, 0.145 µM (active); in the assay with HCT-116, 0.0306 µM (active); in the assay on HOP-62 it was 0.00311 µM (active). Besides, the GI50 is 0.387 µM (active) in the assay on IGROV-1; 0.101 µM (active) in the assay with Malme-3M; 0.0101 µM (active) with NCI-H460; 0.579 µM (active) in the assay with NCI-H522; 0.959 µM (active) in the assay on OVCAR-4; 0.0305 µM (active) in the assay on SK-MEL-28. For the same compound, the results for the GI50 in the assay with SK-MEL-5, with SK-OV-3 and in the assay with UACC-257 were 0.0324 µM (active), 0.0167 µM (active) and 0.0668 µM (active), respectively.

For the compound `CC(=O)O[C@H]1C(N(C)C(=O)c2ccccc2)CC[C@]2(C)C3CC[C@@]4(C)C(CC(O)[C@@H]4C(C)N(C)C)[C@@H]3CCC12` (stereo not given in full), the GI50 with A498, with ACHN, with COLO 205, in the assay with HCC 2998, in the assay on HCT-116 and with HOP-62 was > 100 µM (inactive) throughout. The GI50 in the assay with IGROV-1, with Malme-3M, in the assay on NCI-H460, in the assay with NCI-H522, with OVCAR-4 and in the assay on SK-MEL-28 was > 100 µM (inactive) throughout. The GI50 with SK-MEL-5, in the assay with SK-OV-3 and in the assay on UACC-257 was > 100 µM (inactive) in each case.

In the case of `O=C(CCN1CCC(CCO)CC1)Nc1ccc2c(c1)C(=O)c1ccc(NC(=O)CCN3CCC(CCO)CC3)cc1C2=O`, the GI50 was 19.9 µM (inactive) in the assay with A498; 41.9 µM (inactive) in the assay with ACHN; 10.7 µM (inactive) in the assay on COLO 205; 14.4 µM (inactive) with HCC 2998; 9.46 µM (inactive) with HCT-116; 17.3 µM (inactive) with HOP-62. Moreover, the GI50 was 24.7 µM (inactive) in the assay with IGROV-1; 11 µM (inactive) in the assay with Malme-3M; 3.94 µM (inactive) in the assay on NCI-H460; 11.8 µM (inactive) with NCI-H522; 12.5 µM (inactive) with OVCAR-4; 26.1 µM (inactive) with SK-MEL-28. Moreover, the GI50 with SK-MEL-5 was 19.4 µM (inactive); with SK-OV-3 it was 7.96 µM (inactive); with UACC-257, 19.5 µM (inactive).

For `CC(C)(CN1CCCCC1)C(=O)CC(SCCS(=O)(=O)O)c1ccc(Br)cc1` (stereo not given), the GI50 in the assay on A498 is 2.1 µM (inactive); with ACHN, 1.67 µM (inactive); with COLO 205 it was 1.45 µM (inactive); in the assay on HCC 2998 it was 2.7 µM (inactive); with HCT-116, 1.67 µM (inactive); with HOP-62 it was 6.18 µM (inactive). Moreover, the GI50 in the assay on IGROV-1 is 1.97 µM (inactive); with Malme-3M, 1.39 µM (inactive); in the assay on NCI-H460 it was 2.14 µM (inactive); in the assay with NCI-H522 it was 1.15 µM (inactive); in the assay on OVCAR-4, 2.03 µM (inactive); in the assay with SK-MEL-28, 3.27 µM (inactive). The figures for the GI50 in the assay with SK-MEL-5, in the assay on SK-OV-3 and with UACC-257 were 1.8 µM (inactive), 2.93 µM (inactive) and 3.17 µM (inactive), respectively.

As to `COc1cc2c(c(OC)c1O)-c1ccc(SC)c(=O)cc1C(NC(C)=O)CC2` (stereo not given), the GI50 in the assay on A498 was 0.195 µM (active); in the assay on ACHN, 0.557 µM (active); in the assay with COLO 205, < 0.01 µM (active); with HCC 2998, 0.0261 µM (active); in the assay with HCT-116, < 0.01 µM (active); with HOP-62 it was 0.0405 µM (active). Also, the GI50 with IGROV-1 is 0.0593 µM (active); with Malme-3M, < 0.01 µM (active); with NCI-H460 it was 0.0341 µM (active); in the assay on NCI-H522, < 0.01 µM (active); with OVCAR-4, > 40.6 µM (inactive); in the assay on SK-MEL-28, < 0.01 µM (active). Moreover, the values for the GI50 with SK-MEL-5, in the assay with SK-OV-3 and in the assay on UACC-257 were < 0.01 µM (active), 0.215 µM (active) and 2.24 µM (inactive), respectively.

On to `CC(C)c1cccc(C(C)C)c1/N=C(/N)C#N`, for which the GI50 was > 100 µM (inactive) with A498; > 100 µM (inactive) in the assay on ACHN; 40.6 µM (inactive) in the assay with COLO 205; > 100 µM (inactive) in the assay with HCC 2998; > 44.6 µM (inactive) in the assay with HCT-116; > 100 µM (inactive) in the assay on HOP-62. Besides, the GI50 is > 100 µM (inactive) with IGROV-1; > 100 µM (inactive) in the assay on Malme-3M; > 44.9 µM (inactive) in the assay on NCI-H460; 38 µM (inactive) with NCI-H522; > 100 µM (inactive) in the assay on OVCAR-4; > 100 µM (inactive) in the assay with SK-MEL-28. The GI50 was > 93.5 µM (inactive) in the assay on SK-MEL-5, > 100 µM (inactive) in the assay with SK-OV-3 and > 46.6 µM (inactive) in the assay on UACC-257.
